Data reported in ChEMBL document CHEMBL5728971, “Small molecule inhibitors of lactate dehydrogenase and methods of use thereof” (2022).

assay: Biochemical Assay: Test compounds were placed in a Greiner Bio-One (Monroe, N.C.) 1536-well black solid bottom assay plate. 200 millimolar (mM) Tris HCl, pH 7.4, 100 micromolar (μM) EDTA and 0.01% TWEEN-20™, final concentration, was used as the assay buffer. The LDHA reagent was 2 nanomolar (nM) Human LDHA (Meridian Life Science, Inc., Memphis, Tenn.), final concentration, in assay buffer.

For `COc1ccc(-c2cc(O)n(-c3nc(C(=O)O)cs3)n2)cc1`, which IC50 is on record?
Its IC50 is over 57000 nM.

For `O=C(O)c1csc(-n2nc(-c3ccc(F)cc3)cc2O)n1`, which IC50 is on record?
The IC50 was over 57000 nM.

With `O=C(O)c1csc(-n2nc(-c3ccc(Cl)cc3)cc2C(F)(F)F)n1` as the compound, how does the IC50 read?
The IC50 was “in the range around 29000 nM”.

Which IC50 does the source give for `NS(=O)(=O)c1ccc(Cc2c(-c3ccc(F)c(C#CCC4CC4)c3)nn(-c3nc(C(=O)O)cs3)c2CC2CC2)cc1F` here?
Its IC50 is under 100 nM.

With `N#CC#Cc1cc(-c2nn(-c3nc(C(=O)O)cs3)c(CC3CC3)c2Cc2ccc(S(N)(=O)=O)c(F)c2)ccc1F` as the compound, how does the IC50 read?
The IC50 was under 100 nM.

For `NS(=O)(=O)c1ccc(Cc2c(-c3ccc(F)c(C#CC4CCOC4)c3)nn(-c3nc(C(=O)O)cs3)c2CC2CC2)cc1F` (stereo unspecified), which IC50 is on record?
Its IC50 is under 100 nM.

With `Cc1ccc(C#Cc2cc(-c3nn(-c4nc(C(=O)O)cs4)c(CC4CC4)c3Cc3ccc(S(N)(=O)=O)c(F)c3)ccc2F)s1` as the compound, how does the IC50 read?
Its IC50 is under 100 nM.

Which IC50 does the source give for `NS(=O)(=O)c1ccc(Cc2c(-c3cccc(C#CC4CCCC4)c3)nn(-c3nc(C(=O)O)cs3)c2CC2CC2)cc1F` here?
Its IC50 is under 100 nM.

With `C/C=C/c1cc(-c2nn(-c3nc(C(=O)O)cs3)c(CC3CC3)c2Cc2ccc(S(N)(=O)=O)c(F)c2)ccc1F` as the compound, how does the IC50 read?
Its IC50 is under 100 nM.

With `CC(C)(C)/C=C/c1cc(-c2nn(-c3nc(C(=O)O)cs3)c(CC3CC3)c2Cc2ccc(S(N)(=O)=O)c(F)c2)ccc1F` as the compound, how does the IC50 read?
The IC50 was under 100 nM.

Which IC50 does the source give for `Cc1ccc(C#Cc2cccc(-c3nn(-c4nc(C(=O)O)cs4)c(CC4CC4)c3Cc3ccc(S(N)(=O)=O)c(F)c3)c2)s1` here?
The IC50 was under 100 nM.

With `NS(=O)(=O)c1ccc(Cc2c(-c3ccc(F)c(/C=C/C4CC4)c3)nn(-c3nc(C(=O)O)cs3)c2CC2CC2)cc1F` as the compound, how does the IC50 read?
Its IC50 is under 100 nM.

Which IC50 does the source give for `NS(=O)(=O)c1ccc(Cc2c(-c3ccc(F)c(C#CC(F)F)c3)nn(-c3nc(C(=O)O)cs3)c2CC2CC2)cc1F` here?
The IC50 was under 100 nM.

Which IC50 does the source give for `NS(=O)(=O)c1ccc(Cc2c(-c3ccc(F)c(C#CCN4CCCC4)c3)nn(-c3nc(C(=O)O)cs3)c2CC2CC2)cc1F` here?
The IC50 was under 100 nM.

Which IC50 does the source give for `C#Cc1cc(-c2nn(-c3nc(C(=O)O)cs3)c(CC3CC3)c2Cc2ccc(S(N)(=O)=O)c(F)c2)ccc1F` here?
The IC50 was under 100 nM.

Which IC50 does the source give for `CC(C)C#Cc1cc(-c2nn(-c3nc(C(=O)O)cs3)c(CC3CC3)c2Cc2ccc(S(N)(=O)=O)c(F)c2)ccc1F` here?
The IC50 was under 100 nM.

With `CC(F)C#Cc1cc(-c2nn(-c3nc(C(=O)O)cs3)c(CC3CC3)c2Cc2ccc(S(N)(=O)=O)c(F)c2)ccc1F` (stereo unspecified) as the compound, how does the IC50 read?
Its IC50 is under 100 nM.

For `NS(=O)(=O)c1ccc(Cc2c(-c3ccc(F)c(C#CC(F)(F)F)c3)nn(-c3nc(C(=O)O)cs3)c2CC2CC2)cc1F`, which IC50 is on record?
The IC50 was “in the range around 550 nM”.

For `NS(=O)(=O)c1ccc(Cc2c(-c3ccc(F)c(/C=C/C4CCCC4)c3)nn(-c3nc(C(=O)O)cs3)c2CC2CC2)cc1F`, which IC50 is on record?
The IC50 was under 100 nM.

For `COCC#Cc1cc(-c2nn(-c3nc(C(=O)O)cs3)c(CC3CC3)c2Cc2ccc(S(N)(=O)=O)c(F)c2)ccc1F`, which IC50 is on record?
The IC50 was under 100 nM.

For `NS(=O)(=O)c1ccc(Cc2c(-c3ccc(F)c(C#CC4CCC4)c3)nn(-c3nc(C(=O)O)cs3)c2CC2CC2)cc1F`, which IC50 is on record?
Its IC50 is under 100 nM.

For `NS(=O)(=O)c1ccc(Cc2c(-c3ccc(F)c(C#CCCO)c3)nn(-c3nc(C(=O)O)cs3)c2CC2CC2)cc1F`, which IC50 is on record?
The IC50 was under 100 nM.

For `NS(=O)(=O)c1ccc(Cc2c(-c3ccc(F)c(C#CCC4CCCC4)c3)nn(-c3nc(C(=O)O)cs3)c2CC2CC2)cc1F`, which IC50 is on record?
Its IC50 is under 100 nM.

For `Cn1cncc1C#Cc1cc(-c2nn(-c3nc(C(=O)O)cs3)c(CC3CC3)c2Cc2ccc(S(N)(=O)=O)c(F)c2)ccc1F`, which IC50 is on record?
The IC50 was under 100 nM.

Which IC50 does the source give for `NS(=O)(=O)c1ccc(Cc2c(-c3ccc(F)c(C#Cc4cccs4)c3)nn(-c3nc(C(=O)O)cs3)c2CC2CC2)cc1F` here?
The IC50 was under 100 nM.

Which IC50 does the source give for `NS(=O)(=O)c1ccc(Cc2c(-c3ccc(F)c(C#CC4(F)COC4)c3)nn(-c3nc(C(=O)O)cs3)c2CC2CC2)cc1F` here?
Its IC50 is under 100 nM.

Which IC50 does the source give for `NS(=O)(=O)c1ccc(Cc2c(-c3ccc(F)c(C#CC4(O)CCOC4)c3)nn(-c3nc(C(=O)O)cs3)c2CC2CC2)cc1F` (stereo unspecified) here?
The IC50 was under 100 nM.

Which IC50 does the source give for `CCOC(=O)c1csc(-n2nc(-c3ccc(F)c(C#CC4CCCC4)c3)c(Cc3ccc(S(N)(=O)=O)cc3)c2CC2CC2)n1` here?
The IC50 was “in the range around 29000 nM”.

With `CCOC(=O)c1csc(-n2nc(-c3ccc(F)c(C#Cc4ccc(C)s4)c3)c(Cc3ccc(S(N)(=O)=O)c(F)c3)c2CC2CC2)n1` as the compound, how does the IC50 read?
The IC50 was over 57000 nM.

With `NS(=O)(=O)c1ccc(Cc2c(-c3ccc(F)c(-c4ccc(F)s4)c3)nn(-c3nc(C(=O)O)cs3)c2CC2CC2)cc1F` as the compound, how does the IC50 read?
The IC50 was under 100 nM.

Which IC50 does the source give for `C=C(c1cc(-c2nn(-c3nc(C(=O)O)cs3)c(CC3CC3)c2Cc2ccc(S(N)(=O)=O)c(F)c2)ccc1F)C(F)(F)F` here?
Its IC50 is under 100 nM.

With `CCOC(=O)c1csc(-n2nc(-c3ccc(F)c(C#CC4CCCC4)c3)c(Cc3cccc(S(N)(=O)=O)c3)c2CC2CC2)n1` as the compound, how does the IC50 read?
Its IC50 is over 57000 nM.

Which IC50 does the source give for `CCOC(=O)c1csc(-n2nc(-c3cccc(C#CC4CCCC4)c3)c(Cc3ccc(S(N)(=O)=O)c(F)c3)c2CC2CC2)n1` here?
Its IC50 is over 57000 nM.

Which IC50 does the source give for `NS(=O)(=O)c1ccc(Cc2c(-c3ccc(F)c(C#CC4CC4)c3)nn(-c3nc(C(=O)O)cs3)c2CC2CC2)cc1` here?
The IC50 was under 100 nM.

Which IC50 does the source give for `C/C=C(\C)c1cc(-c2nn(-c3nc(C(=O)O)cs3)c(CC3CC3)c2Cc2ccc(S(N)(=O)=O)c(F)c2)ccc1F` here?
The IC50 was under 100 nM.

With `NS(=O)(=O)c1cccc(Cc2c(-c3ccc(F)c(C#CC4CCCC4)c3)nn(-c3nc(C(=O)O)cs3)c2CC2CC2)c1` as the compound, how does the IC50 read?
The IC50 was “in the range around 550 nM”.

For `NS(=O)(=O)c1ccc(Cc2c(-c3ccc(F)c(C#CC4=CCCC4)c3)nn(-c3nc(C(=O)O)cs3)c2CC2CC2)cc1F`, which IC50 is on record?
The IC50 was under 100 nM.

For `CS(=O)(=O)c1ccc(Cc2c(-c3ccc(F)c(C#CCC4CCCO4)c3)nn(-c3nc(C(=O)O)cs3)c2CC2CC2)cc1F` (stereo unspecified), which IC50 is on record?
The IC50 was under 100 nM.

Which IC50 does the source give for `NS(=O)(=O)c1ccc(Cc2c(-c3ccc(F)c(C4CC4)c3)nn(-c3nc(C(=O)O)cs3)c2CC2CC2)cc1Cl` here?
The IC50 was under 100 nM.

With `NS(=O)(=O)c1ccc(Cc2c(-c3ccc(F)c(C4=CCCC4)c3)nn(-c3nc(C(=O)O)cs3)c2CC2CC2)cc1F` as the compound, how does the IC50 read?
Its IC50 is under 100 nM.

With `NS(=O)(=O)c1ccc(Cc2c(-c3ccc(F)c(C#CC4(F)CCCC4)c3)nn(-c3nc(C(=O)O)cs3)c2CC2CC2)cc1F` as the compound, how does the IC50 read?
Its IC50 is under 100 nM.

Which IC50 does the source give for `NS(=O)(=O)c1ccc(Cc2c(-c3ccc(F)c(C#CC4(O)COC4)c3)nn(-c3nc(C(=O)O)cs3)c2CC2CC2)cc1F` here?
The IC50 was under 100 nM.

Which IC50 does the source give for `NS(=O)(=O)c1ccc(Cc2c(-c3ccc(F)c(C#CC4CCCC4)c3)nn(-c3nc(C(=O)O)cs3)c2CC2CC2)cc1` here?
The IC50 was under 100 nM.

Which IC50 does the source give for `CCOC(=O)c1csc(-n2nc(-c3ccc(F)c(C#CC4CCCC4)c3)c(Cc3ccc(S(N)(=O)=O)c(F)c3)c2C2CC2)n1` here?
Its IC50 is “in the range around 29000 nM”.

For `NS(=O)(=O)c1ccc(Cc2c(-c3ccc(F)c(C(F)(F)F)c3)nn(-c3nc(C(=O)O)cs3)c2CC2CC2)cc1F`, which IC50 is on record?
Its IC50 is under 100 nM.

With `C=C(C)c1cc(-c2nn(-c3nc(C(=O)O)cs3)c(CC3CC3)c2Cc2ccc(S(N)(=O)=O)c(F)c2)ccc1F` as the compound, how does the IC50 read?
The IC50 was under 100 nM.

For `Cc1ccc(-c2cc(-c3nn(-c4nc(C(=O)O)cs4)c(CC4CC4)c3Cc3ccc(S(N)(=O)=O)c(Cl)c3)ccc2F)s1`, which IC50 is on record?
Its IC50 is under 100 nM.

With `NS(=O)(=O)c1ccc(Cc2c(-c3ccc(F)c(C#CC4CCCC4)c3)nn(-c3nc(C(=O)O)cs3)c2C2CC2)cc1F` as the compound, how does the IC50 read?
Its IC50 is under 100 nM.

For `Cc1oc(=O)oc1COC(=O)c1csc(-n2nc(-c3ccc(F)c(C#CC4CCCC4)c3)c(Cc3ccc(S(N)(=O)=O)c(F)c3)c2CC2CC2)n1`, which IC50 is on record?
The IC50 was over 57000 nM.

For `CC(C)=Cc1cc(-c2nn(-c3nc(C(=O)O)cs3)c(CC3CC3)c2Cc2ccc([SH+](N)[O-])c(F)c2)ccc1F` (stereo unspecified), which IC50 is on record?
The IC50 was under 100 nM.

For `CCOC(=O)c1csc(-n2nc(-c3ccc(F)c(C#CC4CC4)c3)c(Cc3ccc(S(N)(=O)=O)cc3)c2CC2CC2)n1`, which IC50 is on record?
Its IC50 is “in the range around 29000 nM”.

For `CC#Cc1cc(-c2nn(-c3nc(C(=O)OCC)cs3)c(CC3CC3)c2Cc2ccc(S(N)(=O)=O)c(F)c2)ccc1F`, which IC50 is on record?
Its IC50 is “in the range around 29000 nM”.

For `NS(=O)(=O)c1ccc(Cc2c(-c3ccc(F)c(C#CC4(F)CCOC4)c3)nn(-c3nc(C(=O)O)cs3)c2CC2CC2)cc1F` (stereo unspecified), which IC50 is on record?
The IC50 was under 100 nM.

Which IC50 does the source give for `NS(=O)(=O)c1ccc(Cc2c(-c3ccc(F)c(C#CC4(O)CCCC4)c3)nn(-c3nc(C(=O)O)cs3)c2CC2CC2)cc1F` here?
Its IC50 is under 100 nM.

With `CC1(C#Cc2cc(-c3nn(-c4nc(C(=O)O)cs4)c(CC4CC4)c3Cc3ccc(S(N)(=O)=O)c(F)c3)ccc2F)COC1` as the compound, how does the IC50 read?
The IC50 was under 100 nM.

With `CC#Cc1cc(-c2nn(-c3nc(C(=O)O)cs3)c(CC3CC3)c2Cc2cccc(S(N)(=O)=O)c2)ccc1F` as the compound, how does the IC50 read?
The IC50 was under 100 nM.
